Assay results reported in patent US5235045A, “Non-azo naphthalimide dyes” (priority 1992, dated 1993).
Read-outs that look alike come from different tables or passages of the source.

Key:
[1] = tested on: cytochrome c; assay: Effect of irradiation on membrane-bound protein function: oxidation of vesicle-bound cytochrome c by CO(phen)3^3+; format: biochemical; settings: 1×10^-7 M dye, irradiated; pH 7.5, 20° C.; without dye 25±1
Procedure: Cytochrome C, a mitochondrial protein which is peripherally associated with membranes was studied as a model for the effect of photomodification of the membrane lipids on protein function. At pH 7.5 and 20° C., the rate of oxidation of vesicle-bound cytochrome c (7×10^-6 M) by CO(phen)3^3 + was 25±1 s^-1. Upon addition of Compound VII (1×10^-7 M) to the vesicles containing reduced cytochrome c, and subsequent irradiation as described above, the rate constant for oxidation of the bound cytochrome c under the same conditions was reduced to 2±1 s^-1.

[2] = tested on: DAUDI cells; assay: Photoinduced cell kill of DAUDI cells ([3H]-thymidine incorporation); format: cell-based; settings: for CPM ([3H]-thymidine incorporation): 10% FCS medium
Procedure: An additional study using DAUDI cells and lower concentrations of Compound VII was performed according to the same protocol for studying the photochemical kill of H9 cells mediated by Compound VII. Viability was determined by the trypan blue assay above, as well as by [^3 H]-thymidine incorporation. The [^3 H]-thymidine incorporated protocol was as follows:
After irradiation, the cells were diluted to 3×10^5 cells/ml with medium containing twice the normal concentration of gentamycin. The cells were pipetted into a 96-well TC plat (100 μl/well) and incubated at 37° C. in a 5% CO2 incubator for 36 hours. At this time 1 μCi of [^3 ]-thymidine was added and allowed to incorporate for 6 hours. The cells were then harvested on glass fiber filters and placed into scintillation vials to which cocktail was added. The samples were counted on a Beckman model LS 6000IC scintillation counter.

[3] = tested on: Herpes simplex virus type 1; assay: Effect of prior activation of Ed6Br with 420 nm light on HSV-1 (plaque assay); format: cell-based, MacIntyre strain; settings: for log reduction at 25 µM / log reduction at 100 µM: Human alphaherpesvirus 1, 24 h, read-out: Log10 Reduction
[4] = tested on: Herpes simplex virus type 1; assay: Effect of Ed6Br and light on aqueous suspensions of HSV-1 (plaque assay); format: cell-based, MacIntyre strain
[5] = tested on: Bovine Herpes Virus Type I; assay: Photoinactivation of Bovine Herpes Virus Type I (CPE, TCID50); format: cell-based, Bovine Herpes Virus Type I (BHV-1); settings: light or radiation study, 10J/cm^2; for killing at 0.035 µM / killing at 0.07 µM / killing at 0.14 µM / killing at 0.27 µM / killing at 0.54 µM / killing at 1.09 µM: read-out: % Inactivation; for killing at 0.07 µM / log reduction at 0.07 µM: 0.070 μM
Procedure: Bovine Herpes Virus Type I (BHV-1). Cell-free and serum-free virus (BHV-1 reference strain from Dr. M. L. Vickers, ADL SDSU) was purified by potassium tartrate gradient ultracentrifugation. Virus was then resuspended in minimal buffer. Compound VII was diluted with ethanol to a concentration of 5 mg/ml. The dye stock solution was prepared by sequentially adding the ethanolic dye solution to fetal bovine serum (FBS), and diluting the dye-FBS mixture with MEM to give 10% FBS in MEM, so that the final concentration of the compound was 500 ng/ml. All dilutions of the dye in the medium were made from this stock solution. Dye/virus mixtures were all prepared as 1:1 mixtures of virus and dye stock solution. The virus was incubated for 30 min at 37° C. prior to irradiation, and then irradiated using a xenon arc lamp to give 10J/cm^2 total irradiative flux. Photomodified virus was then incubated with the appropriate cells (fetal bovine lung - FBL - or MDBK) in 10% FBS in MEM for 1 hour. Then unbound virus was taken off, the cells were washed with Ca/Mg-free PBS, and the cells were then placed in 10% FBS-MEM. The cells were incubated for 24 hours at 37° C. in a 5% CO2 incubator. After 24 and 48 hours, the cells were assayed for cytophathic effect (CPE), and the results expressed in terms of using TCID50 units. The viral inactivation data are expressed in terms of % inactivation in Table 12.

## CCCCCCNc1c(Br)cc2c3c(cccc13)C(=O)N(CCCCCC)C2=O [Compound VII, 3-bromo-4-(hexyl)amino-N-hexyl-1,8-naphthalimide]
[1]
  rate constant for oxidation of bound cytochrome c: 2 ± 1 s⁻¹
[2]; 1 μM, hν
  CPM ([3H]-thymidine incorporation): 1.2 ± 0.4 × 10^2 CPM
[2]; 1 μM, no hν
  CPM ([3H]-thymidine incorporation): 5.1 ± 0.3 × 10^4 CPM
[2]; 5 μM, hν
  CPM ([3H]-thymidine incorporation): 1.1 ± 0.3 × 10^2 CPM
[2]; 5 μM, no hν
  CPM ([3H]-thymidine incorporation): 4.8 ± 0.3 × 10^4 CPM
[2]; 10 μM, hν
  CPM ([3H]-thymidine incorporation): 1.0 ± 0.4 × 10^2 CPM
[2]; 10 μM, no hν
  CPM ([3H]-thymidine incorporation): 4.5 ± 0.2 × 10^4 CPM
[2]; concentrations as low as 1 μM, 10J/cm^2
  photochemical cell inactivation: highly efficient photochemical cell inactivator
[3]; 25 μM, prior activation +
  PFU/ml: 8.4 × 10^3 PFU/ml
  log reduction at 25 µM: 1.51
[3]; 25 μM, prior activation -
  PFU/ml: 4.5 × 10^4 PFU/ml
  log reduction at 25 µM: 0.78
[3]; 100 μM, prior activation +
  PFU/ml: 3.0 × 10^1 PFU/ml
  log reduction at 100 µM: 3.95
[3]; 100 μM, prior activation -
  PFU/ml: 9.0 × 10^3 PFU/ml
  log reduction at 100 µM: 1.48
[3]; as low as 100 mM, activated prior to addition to viral suspension
  kill of HSV-1: > 99.99%
[4]; 1.25 μM, irradiated 20 J/cm2, 420 nm
  PFU/ml: 0 PFU/ml
[4]; 2.5 μM, irradiated 20 J/cm2, 420 nm
  PFU/ml: 0 PFU/ml
[4]; 5 μM, irradiated 20 J/cm2, 420 nm
  PFU/ml: 0 PFU/ml
[4]; 10 μM, irradiated 20 J/cm2, 420 nm
  PFU/ml: 0 PFU/ml
[4]; .078 μM, irradiated 20 J/cm2, 420 nm
  PFU/ml: 3.8 × 10^1 PFU/ml
[4]; .156 μM, irradiated 20 J/cm2, 420 nm
  PFU/ml: 1.8 × 10^1 PFU/ml
[4]; .312 μM, irradiated 20 J/cm2, 420 nm
  PFU/ml: 7.5 × 10^0 PFU/ml
[4]; .625 μM, irradiated 20 J/cm2, 420 nm
  PFU/ml: 0 PFU/ml
[4]; Human alphaherpesvirus 1, light or radiation study, 1.25 μM, irradiated 20 J/cm2, 420 nm, read-out: Log10 Reduction
  log reduction at 1.25 µM: 5.8
[4]; Human alphaherpesvirus 1, light or radiation study, 2.5 μM, irradiated 20 J/cm2, 420 nm, read-out: Log10 Reduction
  log reduction at 2.5 µM: 5.8
[4]; Human alphaherpesvirus 1, light or radiation study, 5 μM, irradiated 20 J/cm2, 420 nm, read-out: Log10 Reduction
  log reduction at 5 µM: 5.8
[4]; Human alphaherpesvirus 1, light or radiation study, 10 μM, irradiated 20 J/cm2, 420 nm, read-out: Log10 Reduction
  log reduction at 10 µM: 5.8
[4]; Human alphaherpesvirus 1, light or radiation study, .078 μM, irradiated 20 J/cm2, 420 nm, read-out: Log10 Reduction
  log reduction at 0.078 µM: 4.22
[4]; Human alphaherpesvirus 1, light or radiation study, .156 μM, irradiated 20 J/cm2, 420 nm, read-out: Log10 Reduction
  log reduction at 0.156 µM: 4.54
[4]; Human alphaherpesvirus 1, light or radiation study, .312 μM, irradiated 20 J/cm2, 420 nm, read-out: Log10 Reduction
  log reduction at 0.312 µM: 4.92
[4]; Human alphaherpesvirus 1, light or radiation study, .625 μM, irradiated 20 J/cm2, 420 nm, read-out: Log10 Reduction
  log reduction at 0.625 µM: 5.8
[4]; as low as 0.078 mM, 420 nm, 20 J/cm2, 2.5% or less of serum proteins
  kill of HSV-1: > 99.99%
[5]; 24 h
  killing at 0.035 µM: 99.4%
  killing at 0.07 µM: 99.8%
  killing at 0.14 µM: > 100%
  killing at 0.27 µM: > 100%
  log reduction at 1.09 µM: > 3.7
  killing at 1.09 µM: > 100%
[5]; 24 h, read-out: log10 red.
  log reduction at 0.035 µM: 3.2
  log reduction at 0.07 µM: 3.7
  log reduction at 0.14 µM: > 3.7
  log reduction at 0.27 µM: > 3.7
[5]; 48 h
  killing at 0.035 µM: 89.9%
  killing at 0.07 µM: 98.7%
  killing at 0.14 µM: 99.4%
  killing at 0.27 µM: 99.4%
  log reduction at 1.09 µM: > 3.7
  killing at 1.09 µM: > 100%
[5]; 48 h, read-out: log10 red.
  log reduction at 0.035 µM: 0.95
  log reduction at 0.07 µM: 2
  log reduction at 0.14 µM: 3.2
  log reduction at 0.27 µM: 3.2
[5]; 0.54 μM, 24 h
  killing at 0.54 µM: > 100%
[5]; 0.54 μM, 48 h
  killing at 0.54 µM: > 100%
[5]; 0.54 μM, 48 h, read-out: log10 red.
  log reduction at 0.54 µM: > 3.7
